The numbers were not newly measured in US9433602B2, “Combination and composition for treating obesity” (LABORATORIOS SENOSIAIN S.A. DE C.V., priority 2010, dated 2016), which cites them from elsewhere.

Values joined by “and” are separate entries in the source; they are usually repeats but may differ in a detail not shown here. Equal entries are not always repeated.

In series [1] the test system is gastric and pancreatic lipases. The following applies: pharmacological effect of the drug.
Test in series [2]: not given
The source holds these as a separate data set.

The conditions of series [3]: humans, taken orally.

Turning to `Oc1ccc(C=Cc2cc(O)cc(O)c2)cc1` [Resveratrol, 3,5,4′-trihydroxystilbene], the Solubility in water entry is given as “insoluble in water”. The “Solubility in alcohol and methanol” value (alcohol and methanol) was “soluble in alcohol and methanol”. Also, the “Solubility in hydrochloric acid 10%” value (hydrochloric acid 10%) is reported as “insoluble in hydrochloric acid 10%”.
Turning to `CCCCCCCCCCC[C@@H](C[C@@H]1OC(=O)[C@H]1CCCCCC)OC(=O)[C@H](CC(C)C)NC=O` [orlistat], the Solubility in water entry is reported as “insoluble in water”. In addition, the Solubility in chloroform entry (chloroform) was “easily soluble in chloroform”. Besides, the “Decrease of the absorption of ingested fat” value in series [1] was 30%. Moreover, the “Plasma concentrations of intact orlistat” value in series [2] (after single administration of 360 mg, normal weight and obese subjects) was under 5 ng/mL. Also, the “Plasma concentrations in general” value in series [2] (in general, no evidence of accumulation) is < 10 ng/ml and < 0.02 μM. Moreover, the “Share of the fecally excreted dose that was unchanged orlistat” value in series [2] (of the dose excreted in feces) is listed as 83%. Besides, the “Administered dose excreted in feces” value in series [2] (people with normal weight or obese) was “Approximately 97%”.
For the compound `Oc1ccc(/C=C/c2cc(O)cc(O)c2)cc1` [trans-resveratrol], in series [3], the Bioavailability result is listed as “relatively low” and the Half-life result is “approximately 8 h”.
